From PubChem BioAssay AID248 (DTP/NCI, 2004)
Where “and” joins values, the source holds several entries; their conditions need not be identical. Equal values may be shown once. Inconclusive results and toxic doses are left out. No stated cut-off is given here; in the data, active means T/C of 150% or more; inactive means T/C below 125%.

System: L1210 leukemia ip in BDF1 mice, survival T/C
Experiment: NCI In Vivo Anticancer Drug Screen. Data for tumor model L1210 Leukemia (intraperitoneal) in B6D2F1 (BDF1) mice
Conditions: endpoint: mean survival time, higher = longer survival
Method in brief: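 Survival endpoint. Drug-treated group vs vehicle group, expressed as T divided by C. Tumor passaged by transplantation.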

[1] = dose: 100.0 mg/kg/injection, schedule: Q04DX003 (ip), vehicle: saline with Tween-80
[2] = dose: 200.0 mg/kg/injection, schedule: Q04DX003 (ip), vehicle: saline with Tween-80
[3] = dose: 400.0 mg/kg/injection, schedule: Q04DX003 (ip), vehicle: saline with Tween-80
[4] = dose: 100.0 mg/kg/injection, schedule: Q01DX001 (ip), vehicle: carboxymethylcellulose (CMC)
[5] = dose: 400.0 mg/kg/injection, schedule: Q01DX001 (ip), vehicle: carboxymethylcellulose (CMC)
[6] = dose: 100.0 mg/kg/injection, schedule: Q04DX002 (ip), vehicle: saline with Tween-80
[7] = dose: 200.0 mg/kg/injection, schedule: Q04DX002 (ip), vehicle: saline with Tween-80
[8] = dose: 400.0 mg/kg/injection, schedule: Q04DX002 (ip), vehicle: saline with Tween-80
[9] = dose: 100.0 mg/kg/injection, schedule: Q01DX001 (ip), vehicle: saline with Tween-80
[10] = dose: 200.0 mg/kg/injection, schedule: Q01DX001 (ip), vehicle: saline with Tween-80
[11] = dose: 400.0 mg/kg/injection, schedule: Q01DX001 (ip), vehicle: saline with Tween-80
[12] = dose: 100.0 mg/kg/injection, schedule: Q01DX001 (ip), vehicle: saline
[13] = dose: 200.0 mg/kg/injection, schedule: Q01DX001 (ip), vehicle: saline
[14] = dose: 400.0 mg/kg/injection, schedule: Q01DX001 (ip), vehicle: saline
[15] = dose: 100.0 mg/kg/injection, schedule: Q01DX009 (ip), vehicle: saline with Tween-80
[16] = dose: 200.0 mg/kg/injection, schedule: Q01DX009 (ip), vehicle: saline with Tween-80
[17] = dose: 400.0 mg/kg/injection, schedule: Q01DX009 (ip), vehicle: saline with Tween-80
[18] = dose: 100.0 mg/kg/injection, schedule: Q04DX002 (ip), vehicle: Klucel (hydroxypropylcellulose) (HPC)
[19] = dose: 100.0 mg/kg/injection, schedule: Q01DX009 (ip), vehicle: Klucel (hydroxypropylcellulose) (HPC)
[20] = dose: 100.0 mg/kg/injection, schedule: Q04DX003 (ip), vehicle: Klucel (hydroxypropylcellulose) (HPC)
[21] = dose: 200.0 mg/kg/injection, schedule: Q01DX009 (ip), vehicle: Klucel (hydroxypropylcellulose) (HPC)
[22] = dose: 200.0 mg/kg/injection, schedule: Q04DX003 (ip), vehicle: Klucel (hydroxypropylcellulose) (HPC)
[23] = dose: 400.0 mg/kg/injection, schedule: Q04DX003 (ip), vehicle: Klucel (hydroxypropylcellulose) (HPC)
[24] = dose: 200.0 mg/kg/injection, schedule: Q04DX002 (ip), vehicle: Klucel (hydroxypropylcellulose) (HPC)

Measured: T/C

CCCCNC(=O)C(C)S(=O)(=O)c1ccc(C)cc1 (stereo unspecified)
inactive: [1] 100 % of control | [2] 100 % of control | [3] 98 % of control

CNc1ccc(/C=C2\C=Cc3ccccc32)cc1Cl
inactive: [4] 97 % of control | [5] 92 % of control

CC1=C(c2ccccc2)C2(c3ccccc3)C3(C)C(=O)C(C)(C(c4ccccc4)C3c3ccccc3)C2(C)C1=O (stereo unspecified)
inactive: dose: 100.0 mg/kg/injection, schedule: Q04DX002 (ip), vehicle: gum acacia 97 % of control | dose: 200.0 mg/kg/injection, schedule: Q04DX002 (ip), vehicle: gum acacia 91 % of control | dose: 400.0 mg/kg/injection, schedule: Q04DX002 (ip), vehicle: gum acacia 94 % of control

COC1CCC(/C=C(\C#N)C2CCC(C)CC2)CC1 (stereo unspecified)
inactive: [6] 94 % of control | [7] 97 % of control | [8] 94 % of control

CCCCCCCCCCCCC(CCCCCCCCCCC)CCCCCCCCCCCC
inactive: [9] 97 % of control | [10] 97 % of control | [11] 96 % of control

Cc1c(Cl)c(C)c(Cl)c(Cl)c1Cl
inactive: [12] 106 % of control | dose: 100.0 mg/kg/injection, schedule: Q01DX009 (ip), vehicle: saline 101 % of control | dose: 100.0 mg/kg/injection, schedule: Q04DX003 (ip), vehicle: saline 89 % of control | [13] 98 % of control | dose: 200.0 mg/kg/injection, schedule: Q01DX009 (ip), vehicle: saline 108 % of control | dose: 200.0 mg/kg/injection, schedule: Q04DX003 (ip), vehicle: saline 87 % of control | [14] 96 % of control | dose: 400.0 mg/kg/injection, schedule: Q01DX009 (ip), vehicle: saline 94 % of control | dose: 400.0 mg/kg/injection, schedule: Q04DX003 (ip), vehicle: saline 94 % of control

CCCC(CCC)(CCC)CCN
inactive: dose: 5.0 mg/kg/injection, schedule: Q01DX Z (ip), vehicle: carboxymethylcellulose (CMC) 91 % of control | dose: 10.0 mg/kg/injection, schedule: Q01DX Z (ip), vehicle: carboxymethylcellulose (CMC) 112 % of control | dose: 15.0 mg/kg/injection, schedule: Q01DX Z (ip), vehicle: carboxymethylcellulose (CMC) 106 % of control | dose: 20.0 mg/kg/injection, schedule: Q01DX Z (ip), vehicle: carboxymethylcellulose (CMC) 101 % of control

Cc1cccc(NC(=O)OCCN(CCOC(=O)Nc2cccc(C)c2)Cc2ccccc2)c1
inactive: dose: 50.0 mg/kg/injection, schedule: Q01DX001 (ip), vehicle: carboxymethylcellulose (CMC) 90 % of control | [4] 98 % of control | dose: 200.0 mg/kg/injection, schedule: Q01DX001 (ip), vehicle: carboxymethylcellulose (CMC) 104 % of control | [5] 90 % of control

CCC(=O)Nc1cccc(OC(=O)NCCCl)c1
inactive: [15] 96 % of control | [16] 87 % of control | [17] 86 % of control

CCC(C(=O)NNC(=O)c1cc(OC)c(OC)c(OC)c1)c1ccccc1 (stereo unspecified)
inactive: [9] 96 % of control | [6] 97 % of control and 101 % of control | [1] 100 % of control and 90 % of control | [10] 98 % of control | [7] 97 % of control and 98 % of control | [2] 93 % of control and 104 % of control | [11] 93 % of control | [8] 101 % of control and 90 % of control | [3] 92 % of control and 93 % of control

COc1ccc2c(c1)CSC(c1ccccc1)=C2
inactive: dose: 25.0 mg/kg/injection, schedule: Q04DX002 (ip), vehicle: Klucel (hydroxypropylcellulose) (HPC) 98 % of control | dose: 50.0 mg/kg/injection, schedule: Q04DX002 (ip), vehicle: Klucel (hydroxypropylcellulose) (HPC) 120 % of control | [18] 98 % of control

O=C(O)c1c(F)c(F)c(-c2c(F)c(F)c(C(=O)O)c(F)c2F)c(F)c1F
inactive: [9] 93 % of control | [10] 95 % of control | [11] 93 % of control

COC(=O)c1ccc(C(=O)O)[n+]([O-])c1
inactive: [19] 93 % of control | [20] 97 % of control | [21] 88 % of control | [22] 103 % of control | [23] 97 % of control

O=C(Oc1ccc(Cl)cc1)c1ccc(Cl)cc1
inactive: dose: 50.0 mg/kg/injection, schedule: Q01DX009 (ip), vehicle: Klucel (hydroxypropylcellulose) (HPC) 101 % of control | [19] 94 % of control | [20] 101 % of control | [21] 95 % of control | [22] 99 % of control | [23] 92 % of control

Nc1nccc2snnc12
inactive: dose: 100.0 mg/kg/injection, schedule: Q01DX001 (ip), vehicle: Klucel (hydroxypropylcellulose) (HPC) 91 % of control | [20] 94 % of control | dose: 200.0 mg/kg/injection, schedule: Q01DX001 (ip), vehicle: Klucel (hydroxypropylcellulose) (HPC) 89 % of control | [22] 104 % of control | dose: 400.0 mg/kg/injection, schedule: Q01DX001 (ip), vehicle: Klucel (hydroxypropylcellulose) (HPC) 97 % of control | [23] 100 % of control

CNC(=O)Nc1cccc(C(F)(F)F)c1
inactive: [19] 103 % of control | [20] 102 % of control | [21] 100 % of control | [22] 102 % of control | [23] 123 % of control

CC1CC(=O)NN1C(O)c1ccc2c(c1)OCO2 (stereo unspecified)
inactive: [18] 97 % of control | [24] 97 % of control

O=C1C=CC(=O)C(SCC(O)CO)=C1 (stereo unspecified)
inactive: dose: 9.5 mg/kg/injection, schedule: Q01DX001 (ip), vehicle: other 94 % of control | dose: 19.0 mg/kg/injection, schedule: Q01DX001 (ip), vehicle: other 95 % of control | dose: 38.0 mg/kg/injection, schedule: Q01DX001 (ip), vehicle: other 100 % of control

N#CC[CH2][Sn]([Br])([Br])[CH2]CC#N
inactive: dose: 12.5 mg/kg/injection, schedule: Q01DX009 (ip), vehicle: saline 103 % of control | dose: 50.0 mg/kg/injection, schedule: Q01DX009 (ip), vehicle: saline 96 % of control

CC1(C)N=C(N)N=C(N)N1c1cccc(CCCCc2cccc(N)c2)c1
inactive: dose: 5.0 mg/kg/injection, schedule: Q01DX001 (ip), vehicle: saline 98 % of control | dose: 10.0 mg/kg/injection, schedule: Q01DX001 (ip), vehicle: saline 102 % of control | dose: 20.0 mg/kg/injection, schedule: Q01DX001 (ip), vehicle: saline 113 % of control

Nc1nc(N)nc(N)n1 (tested in a mixture with another compound)
inactive: [1] 89 % of control | [2] 89 % of control

CC1C(=O)C(=O)C(CCc2ccccc2)C1=O (stereo unspecified)
inactive: [1] 97 % of control | [2] 97 % of control | [3] 97 % of control

Cc1c(O)cc(O)cc1O
inactive: [12] 96 % of control | [13] 98 % of control

C1CSCS1
inactive: dose: 12.5 mg/kg/injection, schedule: Q04DX002 (ip), vehicle: saline with Tween-80 103 % of control | dose: 25.0 mg/kg/injection, schedule: Q04DX002 (ip), vehicle: saline with Tween-80 106 % of control | dose: 50.0 mg/kg/injection, schedule: Q04DX002 (ip), vehicle: saline with Tween-80 106 % of control

CCCCOc1ccc(OC(=O)Nc2cccc(C(F)(F)F)c2)cc1
inactive: [15] 96 % of control | [16] 94 % of control | [17] 94 % of control

ClC1C2CC3C1C3C2C(Cl)(Cl)Cl (stereo unspecified)
inactive: [18] 103 % of control | [24] 100 % of control | dose: 400.0 mg/kg/injection, schedule: Q04DX002 (ip), vehicle: Klucel (hydroxypropylcellulose) (HPC) 90 % of control

O=C(O)c1cccc2cccc(C(=O)c3cccs3)c12
inactive: [1] 91 % of control | [2] 98 % of control | [3] 91 % of control

CCOC(=O)Cc1cc(=O)c2cc(C)ccc2[nH]1
inactive: [12] 90 % of control | [13] 89 % of control | [14] 90 % of control

Cc1ccc(N2CCN(Cc3ccc4ccccc4c3)CC2)cc1
inactive: [1] 102 % of control | [2] 94 % of control | [3] 100 % of control
